In brackets after ≈: the same amount, converted by molar mass.
Legend:
[1] = format: physicochemical
Experimental: Equal amounts of the each of the codrug were distributed into labeled test-tubes (20 nmol in each tube). Care was taken to ensure that the entire codrug was dissolved and the solution remained clear. Hydrolysis of the carbonate codrug (˜20 nmol) was conducted in isotonic phosphate buffer pH 7.4 at 32° C. in a water-bath with continuous stirring. […] Samples were collected at predetermined time intervals and stored in the freezer at −20° C. until analyzed. All experiments were conducted in triplicate. An aliquot part (250 μL) of hydrolysis solutions was mixed with 750 μL of acetonitrile, vortexed for 30s, and analyzed by HPLC for the presence of codrug and the two corresponding parent drugs, as well as for the intermediate hydrolysis product, 23. […] A Brownlee C18 reversed-phase Spheri-5 μm column (220×4.6 mm) connected to a C18 reversed-phase guard column (15×3.2 mm) was utilized and detection of solutes was carried out at 215 nm. The mobile phase consisted of a mixture of acetonitrile: 0.1% trifluoroacetic acid adjusted to pH 3.0 with triethylamine (50:50, v/v). The mobile phase flow rate was 1.5 mL/min and 100 μL of hydrolysis sample was injected onto the column.

[2] = humans; cited from earlier work
[3] = physchem; format: physicochemical; details: thermodynamic from solid
Experimental: The solubilities of CB-NTXOL-BUPOH, hydroxybupropion, and 6-β-naltrexol were determined by adding excess quantity of drug to mineral oil or pre-warmed HEPES-buffered Hanks' salt solution pH 7.4 at 32° C. (skin surface temperature), with equilibration while shaking in a water bath at 60 rpm. Weighing 4 mg of each of the drugs and placing them in 1 ml of each of the respective solvents was enough to ensure that there was excess drug in solution. Samples were drawn into a pre-warmed glass syringe, filtered through a syringe filter (Mineral oil: Millex FG-13, Millipore, Billerica, Mass., USA, and buffer: nylon filter, Gelman, East Hills, N.Y., USA), and measured with respect to volume and diluted with an appropriate volume of acetonitrile or buffer. The drug from the buffer samples was immediately extracted by solid phase extraction as described above. Drugs in mineral oil were diluted with a hundred-fold volume of acetonitrile and extraction recoveries were >95% for all the drugs. The sampling procedure was done in triplicate, discarding the first 40% of the initial filtrate. […]. For buffer solubilities, samples were taken after 30 min of sonication (to minimize the hydrolysis of the codrug). No significant difference was found between 30 min sonication solubility measurements and equilibrium solubility measurements taken after 48 h for 6-β-naltrexol.

[4] = saturated solution in light mineral oil, human skin, 32° C., 48 h; codrug in 6-β-naltrexol equivalents
Experimental: Human skin harvested during abdominal reduction surgery was used for the diffusion studies. Skin sections were obtained by using a Padgett dermatome set to 250 μm; these sections were stored at −20° C. Stored skin samples were thawed to room temperature at the time of the experiment. A PermeGear flow-through (In-Line, Riegelsville, Pa., USA) diffusion cell system was used for the skin permeation studies. Skin surface temperature was maintained at 32° C. with a circulating water bath. Data was collected by using human skin from a single donor with three cells of 6-β-naltrexol and four cells CB-NTXOL-BUPOH. Because of normal human skin inter-subject permeation variability, the codrug was compared against 6-β-naltrexol permeation within each individual skin sample. These studies were repeated three times with skin from different human subject donors. The receiver solution was HEPES-buffered Hanks' balanced salt solution pH 7.4 set at a flow rate of 1.1 ml/h. […] A saturated solution of 6-β-naltrexol or CB-NTXOL-BUPOH in light mineral oil was applied to the skin in order to maintain a maximum and constant thermodynamic activity of the drug. Each cell was charged with 0.25 ml of the respective drug solution. […] All samples were immediately processed by solid phase extraction, evaporated under nitrogen, reconstituted, and analyzed for drug content by HPLC. The human tissue use was approved by the University of Kentucky Institutional Review Board.
Cumulative quantity of drug collected in the receiver compartment was plotted as a function of time. The flux value for a given experiment was obtained from the slope of the steady-state portion of the cumulative amount of drug permeated vs. time plot. Apparent permeability coefficient values were computed from Fick's First Law of diffusion:
Sink conditions were maintained in the receiver throughout the experiment, so ΔC was approximated by the drug concentration (solubility in this case) in the donor compartment.
The skin tissue was rinsed with filtered water and blotted with a paper towel. The tissue was tape-stripped twice to remove surface formulation. The area of skin with drug contact was cut out, chopped into tiny pieces, and placed in a pre-weighed vial. The vial was weighed to calculate the mass of the skin. Ten milliliters of acetonitrile was added to each vial, the vials vortexed, sonicated for 10 min, and placed in a shaker overnight. The following day, a 1 ml sample was obtained from the vials and placed in autosampler vials for analysis. […] Flux values and skin concentrations for each of the drugs were reported as mean±S.D and were statistically compared using a paired Student's t-test. Flux enhancement as well as drug disposition in the skin were considered significant at p<0.05.

[5] = Plasma hydrolysis of the carbonate codrug; format: in vitro ADME, guinea pig; details: guinea pig plasma in vitro at 37° C.
Experimental: Guinea pig plasma, which was stored at −20° C., was thawed to room temperature. Known and sub-saturated amounts of the codrug (50 nmol) were added to approximately 2.0 ml of the guinea pig plasma and vortexed. Two-hundred μl aliquots of the spiked plasma were distributed into sealed vials, and incubated at 37° C. Samples were withdrawn at predetermined time intervals; 0, 0.5, 1, 2, 4, 6, 9, 24, 30, and 48 h. 500 μl of ACN was added to each sample to precipitate plasma protein. Each sample was vortexed and centrifuged at 10,000×g for 15 min. The supernatant was separated and evaporated under nitrogen at room temperature, and the residue was reconstituted with ACN for high-pressure liquid chromatography (HPLC) analysis. A standard curve was prepared from drug-spiked plasma samples processed by the same method. The amounts of the codrug remaining or parent drugs released were plotted against time. These hydrolytic profiles were fit to previously developed mathematical models using nonlinear least-squares regression analysis ([…]®, Micromath Inc., Salt Lake City, Utah) as described by the equations below: […]

[6] = Differential scanning calorimetry; format: physicochemical
[7] = Table 4; values obtained from Kiptoo et al.; cited from earlier work
[8] = human skin, values obtained from Kiptoo et al., cited from earlier work

Question: Which “first-order rate constant k3” value ([1]; generation of BUPOH from codrug 25, isotonic phosphate buffer pH 7.4) does the source give for `Cc1c(-c2cccc(Cl)c2)oc(=O)n1C(C)(C)COC(=O)Oc1ccc2c3c1OC1C(=O)CCC4(O)C(C2)N(CC2CC2)CCC314` (stereo not drawn) [Compound 25] here?
Answer: The value was 0.0483 h⁻¹.

Question: What about the “first-order rate constant k1” value ([1]; hydrolysis at carbonate linker generating NTX (25) or NTXOL (26), isotonic phosphate buffer pH 7.4, 32° C.) of the same compound?
Answer: Its value is 0.0179 h⁻¹.

Question: Which oral bioavailability [2] does the source give for `O=C1CC[C@@]2(O)[C@H]3Cc4ccc(O)c5c4[C@@]2(CCN3CC2CC2)[C@H]1O5` [Compound 1, Naltrexone] here?
Answer: Its oral bioavailability is 5-40%.

Question: What does the source list for `CC1NC(C)(C)COC1(O)c1cccc(Cl)c1` (racemic) [Compound 4, (+/−)-2-(3-chlorophenyl)-3,5,5-trimethyl-2-morpholinol]?
Answer: solubility at 30 min ([3]; aqueous buffer, pH 7.4, 32° C., 30 min sonication, read-out: Hanks' buffer solubility): 3.85 mM (≈ 985 µg/mL); solubility at 48 h ([3]; oil or lipid, 32° C., 48 h equilibration (Table 3), read-out: Light mineral oil solubility): 4.04 mM (≈ 1030 µg/mL); Flux from mineral oil [4]: 25.89 nmol cm^−2 h^−1; Guinea pig plasma half-life [5]: stable; Mean activity of solid @ T = 25° C., a2 ([6]; calculated from melting point and heat of fusion): 0.34; Heat of fusion, ΔHf ([6]; ±s.d., n = 3): 2.58 ± 0.012 kcal/mol; Light mineral oil solubility [7]: 4.04 ± 0.04 mM; In vitro flux ([8]; codrug as NTXOL equivalent flux): 25.89 ± 6.01 nmol cm^−2 h^−1; In vitro lag time [8]: 7.83 ± 1.73 h
